Experimental data reported in publication PMC5655689, “Therapeutic potential of the phosphino Cu(I) complex (HydroCuP) in the treatment of solid tumors” (Scientific Reports, 2017).

Tests used:
26S proteasome = system: 26S proteasome; set-up: method as in PMID 21388518; conditions: cited from earlier work
[1] = system: HCT-15 human colon cancer spheroids; test: 3D spheroid cell viability, acid phosphatase (APH) assay, HCT-15; assay type: cell-based; conditions: HCT-15 spheroids, 72 h
Procedure: In order to improve the predictive capacity of the in vitro assays, we tested HydroCuP activity in two 3D cell cultures of human colon cancer cells, HCT-15 and LoVo. The colon cancer spheroids were treated with HydroCuP for 72 h and the cell viability was assessed by means of the acid phosphatase (APH) assay (Fig. 1, panel A).
Figure 1 Activity in 3D cell cultures. (A) Spheroids (2.5 × 10^3 cells/well) were treated for 72 h with increasing concentrations of tested compounds. The growth inhibitory effect was evaluated by means of APH test. IC50 values were calculated from the dose-survival curves by four parameter logistic model (P < 0.05). SD = standard deviation.
Spheroids were initiated in liquid overlay by seeding 2.5 × 10^3 HCT-15 and LoVo cells/well in phenol red-free RPMI-1640 medium (Sigma Chemical Co.), containing 10% FCS and supplemented with 20% methyl cellulose stock solution. A total of 150 μl of this cell suspension was transferred to each well of a round bottom non-tissue culture treated 96 well-plate (Greiner Bio-one, Kremsmünster, Austria) to allow spheroid formation within 72 h.
A modified APH assay, which is based on quantification of cytosolic acid phosphatase activity, was used for determining cell viability in spheroids. Briefly, the pre-seeded spheroids were treated with fresh medium containing the compound to be studied at the appropriate concentration (range 5–150 μM). Triplicate cultures were established for each treatment. After 72 h, each well was treated with 100 μL of the assay buffer (0.1 M sodium acetate, 0.1% Triton-X-100, supplemented with ImmunoPure p-nitrophenyl phosphate; Sigma Chemical Co.) and, following 3 h of incubation, 10 μL of 1 M NaOH solution were added. The inhibition of the cell growth induced by the tested complexes was detected by measuring the absorbance of each well at 405 nm, using a Bio-Rad 680 microplate reader. Mean absorbance for each drug dose was expressed as a percentage of the control untreated well absorbance (T/C) and plotted vs drug concentration. IC50 values, the drug concentrations that reduce the mean absorbance at 405 nm 50% of those in the untreated control wells, were calculated by four-parameter logistic (4-PL) model. Evaluation was based on means from at least four independent experiments.

[2] = system: LoVo colorectal oxaliplatin-sensitive xenograft; conditions: mouse, in vivo, ip, 30 mg/kg
Procedure: (§1) To this aim, we developed the OXP-sensitive and OXP-resistant LoVo xenografts in BALB/c nu/nu mice. […] OXP-sensitive or OXP-resistant LoVo cells (1 × 10^7) were injected in the flank of mice. Once tumor was established (tumor volumes of about 0.4 cm^3, around 14 days after tumor inoculation), mice were randomly divided into six groups (6 animals per group, 8 controls). The HydroCuP-treated groups (6 mice each group) received daily 30 mg/kg by i.p. injection and the OXP-treated group was given 2 mg/kg by i.p. injection. At day 30, animals were sacrificed, and the inhibition of tumor growth was determined (Fig. 4, panel A). Measurements of body weights were recorded from day 14 every 2 days until the experimental endpoint (Fig. 4, panel B).
(§2) (A) LoVo and LoVo-OXP tumor xenografts in 6-week-old BALB/c nu/nu mice by injecting 1 × 10^7 tumor cells subcutaneously on the left dorsal flank. After 24 h from tumor implantation, mice randomly divided into six groups (6 animals per group). Chemotherapy delayed until day 14 (tumor volumes of about 0.4 cm^3). From day 14, HydroCuP dosed daily at 30 mg/kg i.p., OXP dosed daily at 2 mg/kg i.p. At day 30, animals sacrificed, and the inhibition of tumor growth determined by comparing the volume of the control group and the treatment group expressed as percentage referred to the control animals. Error bars indicate the S.D. *p < 0.05, **p < 0.01, with respect to control. […] Body weight was measured every two days and was taken as a parameter of systemic toxicity. The error bars indicate the S.D. **P < 0.01; *P < 0.05.
(§3) LoVo and LoVo-OXP tumor xenografts were established in 6-week-old BALB/c nu/nu mice by injecting 1 × 10^7 tumor cells subcutaneously (100 μL in serum free medium) on the left dorsal flank. After 24 h from tumor implantation, mice were randomly divided into six groups (6 animals per group, 8 controls). Chemotherapy was delayed until the tumor was about 0.4 cm^3 (day 14). From day 14, HydroCuP was dosed daily at 30 mg/kg i.p. whereas OXP was dosed daily at 2 mg/kg i.p. Measurements of body weights and tumor volumes were recorded from day 14 every 2 days until the experimental endpoint. The long axis (L) and the short axis (S) were measured with callipers, and the tumor volume (V) was calculated using the following equation: V = SxSxL/2. At day 30, animals were sacrificed, and the inhibition of tumor growth was determined by comparing the volume of the control group and the treatment group expressed as percentage referred to the control animals.

[3] = Tissue distribution of copper in LLC-bearing mice (GF-AAS); assay type: in vivo, mouse; conditions: single i.p. 50 mg/kg on day 10, 24 h
Procedure: To better understand the pharmacology and toxicology of the novel copper(I) complex, tissue samples, collected from LCC-bearing C57BL mice were analysed. […] On day 10 after tumor implantation, mice were treated with a single i.p. injection of 50 mg/kg of HydroCuP. After 24 hours, animals were sacrificed and copper content was quantified by graphite furnace atomic absorption spectroscopy (GF-AAS) analysis in several organs and normalized to control mice tissues. The solid tumor mass presented the highest copper concentration (at least 1.4 times higher than that detected in spleen), followed by spleen, kidney, liver and stomach.
Figure 3 Tissue distribution in LLC bearing C57BL mice. C57BL mice were inoculated i.m. on the right flank with LLC cells (2 × 10^6). After 10 days, HydroCuP was administered i.p. at a dose of 50 mg/kg. The mice were sacrificed after 24 hours and tumor, brain, spleen, kidney, intestine, liver and stomach were excised. Tissues were washed in ice-cold saline and weighed after removing excess fluid. All samples were mineralized in HNO3 and Cu content in each sample was measured by GF-AAS.
C57BL mice were inoculated […]. on the right flank with LLC cells (2 × 10^6). […] All samples were mineralized in HNO3 and Cu content in each sample was measured by GF-AAS (Graphite Furnace Atomic Absorption Spectroscopy).

[4] = Nephrotoxicity: urinary biomarkers (uTP, NAG) in Sprague Dawley rats; assay type: in vivo, rat; conditions: single i.p. HydroCuP 50 mg/kg vs CDDP 1.5 mg/kg
Procedure: Figure 5 Neurotoxicity studies. […] Bar: 500 µm. […] Nephrotoxicity studies. […] Error bars indicate the S.D. The potential nephrotoxic effect of HydroCuP was evaluated by measuring some specific biomarkers in urines obtained from 8-week-old male Sprague Dawley rats treated with a single i.p. injection of HydroCuP and CDDP. Urines of the treated animals were collected after 24, 72 and 120 h, and urinary total protein (uTP) and N-acetyl-β-D-glucosaminidase (NAG) were evaluated as signs of nephrotoxicity. […] On the contrary, treatment with HydroCuP determined a 24 h excretion of uTP roughly 12 times lower than that recorded with CDDP (Fig. 5, panel D). Following 120 h, the levels of uTP excreted by HydroCuP were 11 times lower compared with the reference metallodrug. Eight-week-old male Sprague Dawley rats were randomly allocated to five groups (five animals per group) and treated with a single i.p. injection of HydroCuP (50 mg/kg) or the vehicle solution (0.2 mL saline solution, control). Cisplatin (1.5 mg/kg,) was also used under the same experimental conditions for comparison purposes. […] Later, urines were centrifuged (150 g for 10 minutes at room temperature) to discard debris and aliquoted to measure creatinine, uTP and NAG. Urine creatinine assays were performed using creatinine assay kit from Sigma Chemical Co. (St. Louis, MO). uTPs were measured by means of BioRad Total Protein Test (Hercules, CA). Urinary NAG was measured spectrophotometrically with the NAG kit (Roche diagnostics, Basel, Switzerland) according to the manufacturer’s protocols. uTP and NAG are expressed as grams per millimoles of creatinine (g mmol^−1 creatinine).

[5] = system: LoVo colorectal oxaliplatin-resistant xenograft; conditions: mouse, in vivo, ip, 30 mg/kg
Procedure: as §1, §2, §3

[6] = system: DRG explants from 15 day-embryonic Sprague-Dawley rats; test: Neurotoxicity: neurite elongation in DRG explants; conditions: 48 h, DRG explants with NGF; OXP 5, 7.5, 10 μM; HydroCuP 5, 10, 20 μM
Procedure: To investigate the potential neurotoxic effect of HydroCuP, we employed a well-established in vitro model based on organotypic cultures of DRG from 15-day-old rat embryos. Neurite elongation under NGF influence was evaluated in DRG explants. […] For comparison purposes, the effect induced by the reference drugs OXP and CDDP was also tested.
OXP and HydroCuP toxicity at 48 h in DRG explants from 15 day-embryonic Sprague-Dawley rats. Representative images of neurite length in maturing DRG explants with different concentrations of OXP and HydroCuP (A). Bar: 500 µm.
DRG from E15 Sprague-Dawley rats (Envigo, San Pietro al Natisone, Italy) were aseptically removed and cultured onto a single layer of rat tail collagen surfaces in 35-mm dishes as previously described[36].
The DRG were incubated in AN2 medium [MEM added with 1.4 mM L-glutamine (Euroclone, Pero, Italy), 10% calf bovine serum (Hyclone, Thermo Scientific, Logan, UT) 50 µg/ml ascorbic acid, 0.6% glucose (Sigma-Aldrich) in the presence of 5 ng/ml nerve growth factor (NGF; Life Technologies, Monza, Italy) in a 5% CO2 humidified incubator at 37 °C.
To evaluate the neurotoxicity of HydroCuP and OXP, the DRG explants were treated for 2 h with NGF and subsequently exposed to each drug at different concentrations for 48 h. OXP was tested at 5, 7.5 and 10 μM while 5, 10 and 20 μM of HydroCuP was used. DRG treated with AN2 medium supplemented with 5 ng/ml NGF alone were used as controls. Phase-contrast micrographs were taken, and the length of the longest neurite in each DRG was measured by Image J (NIH, Bethesda, MD), using a standard calibration grating photographed at the same magnification. A compound is considered neurotoxic when the mean neurite elongation is reduced by 50% or more after drug exposure vs control.

Structure (SMILES): F[P-](F)(F)(F)(F)F.OC[P+](CO)(CO)[Cu-3]([P+](CO)(CO)CO)([P+](CO)(CO)CO)[P+](CO)(CO)CO [HydroCuP, [Cu(thp)4][PF6]]
- Effect on CT-L, T-L and C-L catalytic activities of 26S proteasome (26S proteasome): inhibit chymotrypsin-like (CT-L), trypsin-like (T-L) and caspase-like (C-L) catalytic activities of 26S proteasome
- IC50 fold lower than CDDP [1]: about 2.5
- IC50 ([1]; APH test, read-out: IC50 (μM) ± SD HCT-15): 27 ± 4.25 µM
- Body weight and health vs control group [2]: No significant difference in body weight
- Copper content in brain with respect to control animals [3]: no enhance in copper content was detectable in brain
- Copper concentration in tumor mass, times higher than in spleen ([3]; normalized to control mice tissues): at least 1.4
- NAG activity, times lower than CDDP ([4]; urine 24, 72, 120 h): up to 12
- 24 h excretion of uTP, times lower than CDDP ([4]; urine 24 h): roughly 12
- uTP excreted, times lower than CDDP ([4]; urine 120 h): 11
- Body weight and health vs control group [5]: No significant difference in body weight
- Neurotoxic effect (neurite elongation) [6]: no neurotoxic effect even at the highest concentrations
